“And” between values parts separate entries of the source, which are not always exact repeats. Identical values can stand only once. Like-named read-outs stand apart in the source and are kept apart here.
Key:
5-LO [1] = target: T1, 5-LO (Homo sapiens, UniProt P09917); assay type: biochemical
T1 sequence (P09917 1-674): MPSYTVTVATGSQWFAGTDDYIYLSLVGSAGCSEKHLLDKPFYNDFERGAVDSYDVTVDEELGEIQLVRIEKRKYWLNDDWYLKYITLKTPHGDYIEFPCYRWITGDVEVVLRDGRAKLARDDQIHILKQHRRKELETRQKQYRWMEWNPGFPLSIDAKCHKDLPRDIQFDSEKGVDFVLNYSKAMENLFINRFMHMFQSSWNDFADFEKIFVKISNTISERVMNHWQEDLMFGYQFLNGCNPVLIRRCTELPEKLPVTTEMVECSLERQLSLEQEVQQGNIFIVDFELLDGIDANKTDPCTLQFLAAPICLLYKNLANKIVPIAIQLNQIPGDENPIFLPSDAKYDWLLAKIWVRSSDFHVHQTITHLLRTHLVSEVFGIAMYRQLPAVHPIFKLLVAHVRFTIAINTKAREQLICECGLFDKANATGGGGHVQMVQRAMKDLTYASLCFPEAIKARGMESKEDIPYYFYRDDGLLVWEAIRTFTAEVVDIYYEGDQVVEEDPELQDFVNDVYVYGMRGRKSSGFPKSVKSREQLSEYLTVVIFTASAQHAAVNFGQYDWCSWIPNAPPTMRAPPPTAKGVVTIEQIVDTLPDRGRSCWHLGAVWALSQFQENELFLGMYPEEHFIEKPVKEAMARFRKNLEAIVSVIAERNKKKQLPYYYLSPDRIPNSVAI

5-LO [2] = target: T1, 5-LO; assay: 5-LO inhibition assay, Cerep (Method A, indirect fluorogenic readout, Rhodamine 123); assay type: biochemical
PDE5 = PDE5 (Homo sapiens, UniProt O76074); assay: Phosphodiesterase 5 inhibition assay, Cerep (scintillation counting); assay type: biochemical; conditions: for percent inhibition at 2 µM: PDE5
[3] = Dynamic light scattering (colloidal aggregation); assay type: physicochemical; conditions: for Count rate (kcps): 25 °C
FGFR3 = FGFR3 (Homo sapiens, UniProt P22607); assay: ExpresS Diversity Kinase Profile, Cerep (LANCE): FGFR3; assay type: biochemical
Chain of FGFR3 (P22607 23-806): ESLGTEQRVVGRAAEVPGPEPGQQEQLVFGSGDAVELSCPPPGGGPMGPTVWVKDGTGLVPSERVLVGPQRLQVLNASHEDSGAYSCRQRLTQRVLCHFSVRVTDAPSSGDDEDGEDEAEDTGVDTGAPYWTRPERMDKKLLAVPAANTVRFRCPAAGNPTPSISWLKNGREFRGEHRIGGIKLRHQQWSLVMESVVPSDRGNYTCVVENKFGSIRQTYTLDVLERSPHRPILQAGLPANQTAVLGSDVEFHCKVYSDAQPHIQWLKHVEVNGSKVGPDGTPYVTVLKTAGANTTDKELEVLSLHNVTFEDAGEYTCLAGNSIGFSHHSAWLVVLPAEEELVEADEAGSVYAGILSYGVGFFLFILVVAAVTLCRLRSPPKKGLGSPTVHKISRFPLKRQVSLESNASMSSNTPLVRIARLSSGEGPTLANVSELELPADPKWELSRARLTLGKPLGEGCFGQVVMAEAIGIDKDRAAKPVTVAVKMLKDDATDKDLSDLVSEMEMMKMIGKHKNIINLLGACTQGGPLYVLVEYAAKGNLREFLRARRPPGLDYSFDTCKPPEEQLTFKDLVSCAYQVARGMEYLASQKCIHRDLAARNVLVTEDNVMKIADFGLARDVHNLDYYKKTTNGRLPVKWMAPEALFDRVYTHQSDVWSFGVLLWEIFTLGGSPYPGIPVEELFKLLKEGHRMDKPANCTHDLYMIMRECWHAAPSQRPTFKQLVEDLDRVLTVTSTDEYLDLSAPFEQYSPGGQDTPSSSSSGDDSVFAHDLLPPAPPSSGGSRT

TRKA = TRKA (Homo sapiens, UniProt P04629); assay: ExpresS Diversity Kinase Profile, Cerep (LANCE): TRKA; assay type: biochemical
Chain of TRKA (P04629 33-796): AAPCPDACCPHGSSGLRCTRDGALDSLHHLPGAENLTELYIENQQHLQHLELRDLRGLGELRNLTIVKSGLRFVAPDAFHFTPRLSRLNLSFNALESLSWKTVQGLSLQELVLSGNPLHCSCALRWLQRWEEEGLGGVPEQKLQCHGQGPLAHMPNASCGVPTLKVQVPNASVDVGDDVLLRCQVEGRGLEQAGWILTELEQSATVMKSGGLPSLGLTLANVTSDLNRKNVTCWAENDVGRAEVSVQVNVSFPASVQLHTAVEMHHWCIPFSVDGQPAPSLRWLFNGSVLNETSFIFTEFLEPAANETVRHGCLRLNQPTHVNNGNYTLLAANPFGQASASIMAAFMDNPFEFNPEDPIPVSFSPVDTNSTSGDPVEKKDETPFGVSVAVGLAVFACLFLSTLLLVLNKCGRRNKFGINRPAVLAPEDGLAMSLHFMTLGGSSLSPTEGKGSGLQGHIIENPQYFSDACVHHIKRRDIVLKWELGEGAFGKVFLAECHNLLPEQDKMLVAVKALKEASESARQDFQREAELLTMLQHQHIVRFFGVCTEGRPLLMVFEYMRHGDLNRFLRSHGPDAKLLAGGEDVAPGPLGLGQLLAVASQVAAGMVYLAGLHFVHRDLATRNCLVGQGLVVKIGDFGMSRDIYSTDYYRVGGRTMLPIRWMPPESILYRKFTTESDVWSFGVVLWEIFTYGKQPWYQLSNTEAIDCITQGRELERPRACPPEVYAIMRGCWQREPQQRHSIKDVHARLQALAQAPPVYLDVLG

PKCβ2 = PKCβ2 (Homo sapiens, UniProt P05771); assay: ExpresS Diversity Kinase Profile, Cerep (LANCE): PKCβ2; assay type: biochemical
Chain of PKCβ2 (P05771 1-673 isoform P05771-2): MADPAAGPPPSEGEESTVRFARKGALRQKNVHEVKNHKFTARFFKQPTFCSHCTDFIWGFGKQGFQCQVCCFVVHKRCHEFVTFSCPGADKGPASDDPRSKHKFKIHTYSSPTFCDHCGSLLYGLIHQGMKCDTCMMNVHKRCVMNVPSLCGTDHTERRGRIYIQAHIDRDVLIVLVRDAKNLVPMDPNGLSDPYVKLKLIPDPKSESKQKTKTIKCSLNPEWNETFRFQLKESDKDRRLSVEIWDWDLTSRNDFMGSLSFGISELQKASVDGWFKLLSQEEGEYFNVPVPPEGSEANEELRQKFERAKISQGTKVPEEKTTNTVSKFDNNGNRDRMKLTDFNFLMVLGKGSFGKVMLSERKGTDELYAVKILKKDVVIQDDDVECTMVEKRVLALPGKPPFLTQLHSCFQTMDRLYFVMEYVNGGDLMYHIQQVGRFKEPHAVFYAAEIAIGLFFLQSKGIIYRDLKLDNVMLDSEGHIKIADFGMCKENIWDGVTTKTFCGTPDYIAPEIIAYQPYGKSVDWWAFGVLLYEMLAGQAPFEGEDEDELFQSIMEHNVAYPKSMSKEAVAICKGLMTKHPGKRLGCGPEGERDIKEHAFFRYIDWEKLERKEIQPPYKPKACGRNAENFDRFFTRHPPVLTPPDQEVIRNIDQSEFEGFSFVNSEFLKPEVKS

ROCK1 = ROCK1 (Homo sapiens, UniProt Q13464); assay: ExpresS Diversity Kinase Profile, Cerep (LANCE): ROCK1; assay type: biochemical
Chain of ROCK1 (Q13464 whole entry): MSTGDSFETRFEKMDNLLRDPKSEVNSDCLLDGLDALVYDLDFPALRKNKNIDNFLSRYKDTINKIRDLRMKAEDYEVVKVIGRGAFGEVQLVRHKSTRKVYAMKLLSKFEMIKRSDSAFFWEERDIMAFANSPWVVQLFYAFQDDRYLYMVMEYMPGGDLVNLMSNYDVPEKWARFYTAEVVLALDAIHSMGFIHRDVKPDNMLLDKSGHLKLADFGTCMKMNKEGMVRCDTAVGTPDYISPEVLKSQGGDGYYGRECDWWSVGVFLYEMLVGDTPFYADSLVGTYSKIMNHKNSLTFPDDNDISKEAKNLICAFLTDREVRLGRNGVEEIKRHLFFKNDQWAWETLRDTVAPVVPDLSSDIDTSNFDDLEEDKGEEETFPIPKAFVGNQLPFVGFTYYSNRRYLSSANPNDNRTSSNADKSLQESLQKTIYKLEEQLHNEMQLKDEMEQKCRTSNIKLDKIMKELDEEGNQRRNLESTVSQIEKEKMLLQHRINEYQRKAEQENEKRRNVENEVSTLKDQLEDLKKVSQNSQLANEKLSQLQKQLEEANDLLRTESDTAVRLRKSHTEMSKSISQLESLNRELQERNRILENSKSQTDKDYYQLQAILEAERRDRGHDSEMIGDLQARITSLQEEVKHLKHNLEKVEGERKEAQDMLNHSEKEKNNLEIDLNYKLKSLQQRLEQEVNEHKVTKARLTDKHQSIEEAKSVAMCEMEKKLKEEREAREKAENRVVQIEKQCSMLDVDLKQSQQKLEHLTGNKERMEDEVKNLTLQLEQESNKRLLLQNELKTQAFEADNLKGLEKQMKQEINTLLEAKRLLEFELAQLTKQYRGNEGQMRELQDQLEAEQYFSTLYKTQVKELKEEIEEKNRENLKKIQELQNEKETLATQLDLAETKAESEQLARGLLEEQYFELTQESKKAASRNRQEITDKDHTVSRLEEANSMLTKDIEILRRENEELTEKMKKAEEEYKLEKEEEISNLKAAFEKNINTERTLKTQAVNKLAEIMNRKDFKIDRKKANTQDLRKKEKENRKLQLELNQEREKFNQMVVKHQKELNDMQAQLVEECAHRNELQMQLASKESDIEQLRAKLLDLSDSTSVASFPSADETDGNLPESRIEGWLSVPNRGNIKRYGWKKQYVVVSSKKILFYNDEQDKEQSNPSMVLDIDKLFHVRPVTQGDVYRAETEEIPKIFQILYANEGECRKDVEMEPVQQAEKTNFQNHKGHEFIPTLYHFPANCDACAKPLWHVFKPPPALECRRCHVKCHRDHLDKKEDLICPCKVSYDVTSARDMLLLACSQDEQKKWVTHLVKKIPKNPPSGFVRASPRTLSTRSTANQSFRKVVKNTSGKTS

EP3 = target: T2, EP3 (Homo sapiens, UniProt P43115); assay: EP3 functional agonist assay, Cerep (impedance)
T2 sequence (P43115 1-390): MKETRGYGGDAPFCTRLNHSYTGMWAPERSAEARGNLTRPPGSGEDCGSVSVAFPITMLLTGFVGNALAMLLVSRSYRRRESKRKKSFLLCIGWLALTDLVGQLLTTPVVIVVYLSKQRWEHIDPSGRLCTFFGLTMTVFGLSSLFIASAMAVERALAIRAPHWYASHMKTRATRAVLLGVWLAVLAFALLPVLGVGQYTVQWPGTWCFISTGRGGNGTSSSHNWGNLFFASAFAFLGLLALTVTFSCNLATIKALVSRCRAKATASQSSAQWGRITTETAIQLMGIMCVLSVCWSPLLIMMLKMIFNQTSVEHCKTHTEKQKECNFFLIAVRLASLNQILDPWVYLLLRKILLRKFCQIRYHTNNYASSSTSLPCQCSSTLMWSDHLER

5-LO [4] = target: T1, 5-LO; assay: 5-LO product formation in neutrophil homogenates
EP2 = EP2 (Homo sapiens, UniProt P43116); assay: EP2 functional antagonist assay, Cerep (PGE2 100 nM, cAMP)
Chain of EP2 (P43116 whole entry): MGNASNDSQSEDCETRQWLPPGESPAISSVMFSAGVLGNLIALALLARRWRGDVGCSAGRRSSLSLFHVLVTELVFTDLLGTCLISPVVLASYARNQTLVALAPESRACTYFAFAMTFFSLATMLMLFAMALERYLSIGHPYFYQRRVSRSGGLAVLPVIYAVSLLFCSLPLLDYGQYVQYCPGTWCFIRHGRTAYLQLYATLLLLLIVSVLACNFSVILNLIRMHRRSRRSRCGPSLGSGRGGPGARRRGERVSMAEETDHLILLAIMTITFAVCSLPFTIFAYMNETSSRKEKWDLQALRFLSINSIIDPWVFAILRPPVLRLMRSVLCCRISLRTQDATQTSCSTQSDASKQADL

[5] = test system: Staphylococcus aureus ATCC 25923; assay: Minimum inhibitory concentration assay, Staphylococcus aureus; conditions: concentrations up to 50 µM
[6] = read-out: % of control values, 1st measurement
[7] = read-out: % of control values, 2nd measurement
[8] = Flag: Interference, read-out: % Inhibition of control values, 1st measurement
[9] = Flag: Interference, read-out: % Inhibition of control values, 2nd measurement
[10] = n = 2, Flag: Interference, read-out: % Inhibition of control values, Mean

CC1(C)CCC2=C(O1)c1ccccc1C(=O)C2=O [β-Lapachone]
inhibition of 5-LO at varying arachidonic acid concentrations (5-LO [1]; AA 2.5–40 μM, n = 3): non-competitive inhibition
IC50 (5-LO [1]; IC50 (3 μg mL^–1, PC), competition with phosphatidylcholine 3 μg/mL, n = 3): 100 nM
IC50 (5-LO [1]; IC50 (30 μg mL^–1, PC), competition with phosphatidylcholine 30 μg/mL, n = 3): 1000 nM
IC50 (5-LO [1]; IC50 (with DTT), cell-free, reducing conditions, 1 mM dithiothreitol (DTT), n = 3): 240 nM
IC50 (5-LO [1]; IC50 (without Triton X100), cell-free, plus 1 mM DTT, no Triton X100, n = 3): 120 nM
IC50 (5-LO [1]; cell-free, absence of DTT, n = 3, read-out: IC50 (without DTT)): > 30000 nM
IC50 (5-LO [1]; cell-free, plus 1 mM DTT, 0.01% Triton X100, n = 3, read-out: IC50 (with Triton X100)): 90 nM
5-LO activity upon wash-out (5-LO [1]; wash-out experiment, 10-fold dilution, plus 1 mM DTT): reinstated
ligand efficiency (LE) (5-LO [2]; 5-LO): 0.44
inhibition at 5 µM (5-LO [2]; 5-LO, n = 2, read-out: % inhibition of control values, Mean): 102%
inhibition at 5 µM (5-LO [2]; 5-LO, read-out: % inhibition of control values, 1st measure): 103%
inhibition at 5 µM (5-LO [2]; 5-LO, read-out: % inhibition of control values, 2nd measure): 99.8%
inhibition at 150 µM (5-LO [2]; 5-LO, 150 µM, read-out: % inhibition of control values, 1st measure): 98.4%
inhibition at 150 µM (5-LO [2]; 5-LO, 150 µM, read-out: % inhibition of control values, 2nd measure): 92.9%
IC50 (5-LO [2]; 5-LO, indirect fluorogenic readout, read-out: Experimental –log(IC50 or KD) (converted)): 2510 nM
ligand efficiency (LE) (5-LO [2]; 5-LO, listed as 1): > 0.30
IC50 (5-LO [2]; IC50, 5-LO, indirect fluorescence detection (Cerep), n = 2): 2100 nM
inhibition at 150 µM (5-LO [2]; read-out: % inhibition of control values, Mean): 95.7%
IC50 (PDE5): > 10000 nM
percent inhibition at 2 µM (PDE5; n = 2, read-out: % of control values, Mean): -8.3%
percent inhibition at 2 µM (PDE5; [6]): -6.9%
percent inhibition at 2 µM (PDE5; [7]): -9.7%
activity against PDE5 (PDE5; screening against phosphodiesterase 5): inactivity
Count rate (kcps) ([3]; 25 µM in H2O + 0.1% DMSO): 60.7 kcps
Count rate (kcps) ([3]; 50 µM in H2O + 0.1% DMSO): 47.6 kcps
Count rate (kcps) ([3]; 100 µM in H2O + 0.1% DMSO): 136.1 kcps
aggregation by dynamic light scattering ([3]; at relevant concentrations): no aggregation
inhibition at 150 µM (FGFR3; [8]): 76.5%
inhibition at 150 µM (FGFR3; [9]): 85.1%
inhibition at 150 µM (FGFR3; [10]): 80.8%
inhibition at 150 µM (TRKA; [8]): 38.1%
inhibition at 150 µM (TRKA; [9]): 45.7%
inhibition at 150 µM (TRKA; [10]): 41.9%
inhibition at 150 µM (PKCβ2; n = 2, read-out: % Inhibition of control values, Mean): 34%
inhibition at 150 µM (PKCβ2; read-out: % Inhibition of control values, 1st measurement): 36.5%
inhibition at 150 µM (PKCβ2; read-out: % Inhibition of control values, 2nd measurement): 31.6%
inhibition at 150 µM (ROCK1; [8]): -12.5%
inhibition at 150 µM (ROCK1; [9]): -3.2%
inhibition at 150 µM (ROCK1; [10]): -7.9%
remaining activity at 150 µM (EP3; [6]): 18.6%
remaining activity at 150 µM (EP3; [7]): 15.5%
remaining activity at 150 µM (EP3; read-out: % of control values, Mean): 17%
IC50 (5-LO [4]; IC50 (with DTT), neutrophil homogenates with 1 mM DTT, n = 3): 90 nM and 85 nM
IC50 (5-LO [4]; IC50 (without DTT), neutrophil homogenates without DTT, n = 3): 5200 nM
IC50 (5-LO [4]; IC50, neutrophil homogenates with 1 mM dithiothreitol): 85.5 nM
IC50 (EP2): ~100000 nM
phenotypic effects on Staphylococcus aureus [5]: No phenotypic effects

Reference: paper PMC6138237, “Machine intelligence decrypts β-lapachone as an allosteric 5-lipoxygenase inhibitor” (Chemical Science, 2018)
